According to patent publication US20220195059A1, “Rank Pathway Inhibitors in Combination with CDK Inhibitors” (INSTITUTO DE MEDICINA MOLECULAR JOÃO LOBO ANTUNES, priority 2019, published 2022):

Key:
[1] = tested on: RANK OE cells (MCF-7^OE, T47D^OE) and parental MCF-7, T47D cells; test: Alamar blue viability assay, RANK OE luminal breast cancer cells vs parental counterparts; format: cell-based, human; settings: RANK OE cells vs parental counterparts; drug alone; 7 days
Method: Cells were seeded in 96 well-plates (2-5×10^4 cells/mL), with or without paclitaxel (Y0000698, Sigma), doxorubicin hydrochloride (D2975000, Sigma), palbociclib (PD 0332991 isethionate, PZ0199, Sigma), ribociclib (LEE011 succinate, SC-488174, Santa Cruz), abemaciclib mesylate (LY2835219, S7158, Selleckchem), fulvestrant (S1191, Selleckchem), everolimus (#73122, StemCell Technologies), full length human OPG (SRP3132, Sigma), and OPG-Fc (Amgen). Medium was replaced every 2 days. After 7 days, 1:10 Alamar blue (Invitrogen) was added to each well and fluorescence was measured 2 hours after incubation (excitation 560 nm; emission 590 nm) in an Infinite M200 microplate reader (Tecan).
In particular, RANK OE cells were tested for responsiveness to hormone therapy. Briefly, RANK OE cells were seeded in multi-well plates and exposed to fulvestrant for 7 days.
In this assay, however, RANK OE cells were exposed to a CDK 4/6 inhibitor alone or in combination with an inhibitor of the RANK pathway, in order to test the effect of blocking the RANK pathway in this context. Briefly, RANK OE cells were seeded in multi-well plates and exposed to palbociclib, ribociclib or abemaciclib alone or in combination with OPG-Fc for 7 days. Osteoprotegrin (OPG) is the physiologic soluble decoy receptor for RANK ligand (RANKL), and OPG-Fc is a fusion protein comprising only the four cysteine-rich domains of OPG (D1 to D4) fused with the Fc domain of an IgG1 antibody.
In this study, the CDK4/6 inhibitors palbociclib and ribociclib were exposed to RANK OE cells in combination with fulvestrant or everolimus. This combination therapy was then tested alone or in combination with OPG, an inhibitor of the RANK pathway. In this assay, the full-length OPG protein was used, in contrast to the previous example utilizing OPG-Fc.
To address this question, cell growth in the presence or absence of a CDK4 inhibitor was quantified. Briefly, cells were seeded in 96-well plates and exposed to two different drugs, CDK4 inhibitors, 3-ATA (FIG. 20A) or Cdk4 inhibitor Ill (FIG. 20B) for seven days. Medium was replaced every two days, and viability was assessed by Alamar blue assay. FIG. 20A provides the cell growth quantification in the presence of the CDK4 inhibitor 3-ATA and FIG. 20B provides the cell growth quantification in the presence of another CDK4 inhibitor, Cdk4 Inhibitor Ill. The results are the mean of at least three independent assays, with 4 replicates per assay, and presented as the mean±SEM. p-value was calculated using 2-way ANOVA, *p<0.05, **p<0.01, ***p<0.001.
To answer this question, cell growth in the presence of the pan-CDK inhibitor seliciclib (also known as roscovitine or CYC202) was analyzed. Briefly, cells were seeded in 96-well plates and exposed to different drugs for seven days. Medium was replaced every two days, and viability was assessed by Alamar blue assay.
Cells were seeded in 96 well-plates (2-5×10^4 cells/mL), with or without palbociclib (PD 0332991 isethionate, PZ0199, Sigma), ribociclib (LEE011 succinate, SC-488174, Santa Cruz), abemaciclib mesylate (LY2835219, S7158, Selleckchem), 3-ATA (sc-202414, Santa Cruz), Cdk4 inhibitor Ill (sc-202988, Santa Cruz), seliciclib (S1153, Selleckchem), and OPG-Fc (PL-33324, Amgen). Medium was replaced every 2 days. After 7 days, 1:10 Alamar blue (Invitrogen) was added to each well and fluorescence was measured 2 hours after incubation (excitation 560 nm; emission 590 nm) in an Infinite M200 microplate reader (Tecan).

MDA-MB-231 xenografts = test: TNBC ectopic xenograft model; format: in vivo, NSG mice; settings: Palbociclib 30 mg/Kg/day p.o., 21 days; xenografts not regressed
Method: Based on these findings TNBC BC sensitivity to CDK4/6 inhibitors (palbociclib) in combination with RANK pathway blockage was tested in a TNBC ectopicxenograft model (FIG. 27). Nod scid gama (NSG) mice were inoculated subcutaneously and bilaterally in the flanks (n=5/group). Tumors were measured with caliper. When tumors reach approximately 100 mm^3 mice were randomized based on tumor size and treated according to the experimental protocol. Palbociclib was used at 30 mg/Kg/day for 21 consecutive days, as the human equivalent dose (HED) of 125 mg/day approved for palbociclib is equivalent to […] in mice (Nair and Jacob, J Basic Clin Pharm. 2016 March; 7(2):27-31). OPG-Fc was used at 10 mg/Kg 3×/week (HED 291.6 mg/15 days).
Nod scid gama (NSG) mice were inoculated subcutaneously and bilaterally in the flanks with MDA-MB-231 cells (n=4-5/group). Six weeks post inoculation mice were randomized based on tumor size and treated with OPG-Fc 10 mg/Kg i.p. 3× per week; Palbociclib 30 mg/Kg/day p.o. or the combination. […] The data are presented as mean±SEM. p-value was calculated using ANOVA, *p<0.05, **p<0.01, ***p<0.001.
Tumor growth was monitored every two days with caliper and tumor volume calculated using the formula Tvol=½(length×width^2). […]
TRAcP 5b was quantified in mouse serum using the MouseTRAP (TRAcP 5b) ELISA kit (IDS), according to the manufacturer instructions.

## CC(=O)c1c(C)c2cnc(Nc3ccc(N4CCNCC4)cn3)nc2n(C2CCCC2)c1=O [palbociclib]
[1]
  sensitivity of RANK OE cells to the drug (cell viability): decreased sensitivity
MDA-MB-231 xenografts
  tumor growth (tumor volume): slowing of tumor growth
